Source: US8163935B2, “Fused heterocyclic compounds” (Takeda Pharmaceutical Company Limited, priority 2005, dated 2012)
Structures can show the parent of a compound that is named as a salt.

What was measured:
human CRF receptor = molecular target: T1, human CRF receptor (Homo sapiens, UniProt P34998); assay: Corticotropin-releasing factor (CRF) receptor binding experiment with 125I-CRF; conditions: human CRF receptor expressing CHO cellular membrane fraction; for IC50: 125I-CRF, GraphPad Prism; for inhibition at 1 µM: 1000 nM test compound, 50 pM 125I-CRF, read-out: Binding inhibitory rate (%) 1000 nM
T1 construct: expressed in transfected cells; host or cells: CHO cells (membrane fraction)
T1 sequence (P34998 24-415): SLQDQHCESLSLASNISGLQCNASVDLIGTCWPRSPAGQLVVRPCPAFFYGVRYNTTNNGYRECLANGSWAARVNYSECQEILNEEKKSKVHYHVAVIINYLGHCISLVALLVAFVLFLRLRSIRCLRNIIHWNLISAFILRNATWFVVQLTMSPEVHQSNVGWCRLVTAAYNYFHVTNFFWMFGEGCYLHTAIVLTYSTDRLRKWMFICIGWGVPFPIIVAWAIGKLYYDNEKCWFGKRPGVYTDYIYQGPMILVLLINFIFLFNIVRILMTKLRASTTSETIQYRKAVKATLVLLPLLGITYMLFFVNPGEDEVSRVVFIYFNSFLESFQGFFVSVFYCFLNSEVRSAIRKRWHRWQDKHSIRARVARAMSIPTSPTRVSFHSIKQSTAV
Protocol: A receptor binding experiment was carried out using a human CRF receptor expressing CHO cellular membrane fraction and ovine CRF, [^125I]-tyr^0 (^125I-CRF). 1000 nM of a test compound was incubated with 1 μg of human CRF receptor expressing CHO cellular membrane fraction and 50 pM of ^125I-CRF in a binding assay buffer (50 mM Tris-HCl, 5 mM EDTA, 10 mM MgCl2, 0.05% CHAPS, 0.1% BSA, 0.5 mM PMSF, 0.1 μg/ml pepstatin, 20 μg/ml leupeptin, pH 7.5). In addition, for measuring nonspecific binding (NSB), 0.1 μM unlabelled human Urocortin was incubated with 1 μg of human CRF receptor expressing CHO cellular membrane fraction and 50 pM of ^125I-CRF in a binding assay buffer. After a binding reaction was carried out at room temperature for 1.5 hour, the membrane was entrapped on a glass filter (UniFilter plate GF-C/Perkin Elmer) by suction filtration using a cell harvester (Perkin Elmer), and washed with ice-cooled 50 mM Tris-HCl (pH 7.5). After drying the glass filter, a liquid scintillation cocktail (Microscinti 0, Perkin Elmer) was added, and the radioactivity of ^125I-CRF remaining on a glass filter was measured using Topcount (Perkin Elmer).
(TB−SB)/(TB−NSB)×100 (SB: radioactivity when a compound is added, TB: maximum binding radioactivity, NSB: nonspecific binding radioactivity) was calculated to obtain a binding inhibitory rate under the presence of 1,000 nM of each test substances. The IC50 values were calculated by using GraphPad Prism software.

For `CCc1cc(CC)n(-c2cccc3nc(Nc4c(C)cc(Br)cc4OC)n(C)c23)n1` [Example 66, N-(4-Bromo-2-methoxy-6-methylphenyl)-7-(3,5-diethyl-1H-pyrazol-1-yl)-1-methyl-1H-benzimidazol-2-amine], the IC50 (human CRF receptor) was 10 to 50 nM.
Work on `CCC(CC)c1ccc(Cl)c2nc(Nc3c(C)cc(Cl)cc3OC)n(CCO)c12` [Example 103, 2-[4-Chloro-2-[(4-chloro-2-methoxy-6-methylphenyl)amino]-7-(1-ethylpropyl)-1H-benzimidazol-1-yl]ethanol] yielded an inhibition at 1 µM (human CRF receptor) greater than 80%.
`CCC(CC)c1ccc(C)c2nc(Nc3c(C)cc(Cl)cc3OC)n(C)c12` [Example 101, N-(4-Chloro-2-methoxy-6-methylphenyl)-7-(1-ethylpropyl)-1,4-dimethyl-1H-benzimidazol-2-amine] showed an inhibition at 1 µM (human CRF receptor) greater than 80% and an IC50 (human CRF receptor) of less than 10 nM.
With `COc1cc(Br)cc(C)c1Nc1nc2cccc(-n3c(C)ccc3C)c2n1C` [Example 69, N-(4-Bromo-2-methoxy-6-methylphenyl)-7-(2,5-dimethyl-1H-pyrrol-1-yl)-1-methyl-1H-benzimidazol-2-amine] the inhibition at 1 µM (human CRF receptor) was greater than 80%.
For `CCc1ccccc1-c1cccc2nc(Nc3c(C)cc(Cl)cc3OC)n(C)c12` [Example 15, N-(4-Chloro-2-methoxy-6-methylphenyl)-7-(2-ethylphenyl)-1-methyl-1H-benzimidazol-2-amine], the IC50 (human CRF receptor) was 10 to 50 nM.
`CCC(CC)c1ccc(OC)c2nc(Oc3c(C)cc(Cl)cc3Cl)n(C)c12` [Example 145, 2-(2,4-Dichloro-6-methylphenoxy)-7-(1-ethylpropyl)-4-methoxy-1-methyl-1H-benzimidazole] gave an IC50 (human CRF receptor) of less than 10 nM and a melting point of 130 to 131 °C.
`CCC(CC)c1ccc(Cl)c2nc(Nc3ccc(Cl)cc3Br)n(C)c12` [Example 84, N-(2-Bromo-4-chlorophenyl)-4-chloro-7-(1-ethylpropyl)-1-methyl-1H-benzimidazol-2-amine] gave an inhibition at 1 µM (human CRF receptor) greater than 80% and a melting point of 136 to 138 °C.
`CCCC(CCC)c1cccc2nc(Nc3c(C)cc(Br)cc3OC)n(C)c12` [Example 1, N-(4-Bromo-2-methoxy-6-methylphenyl)-1-methyl-7-(1-propylbutyl)-1H-benzimidazol-2-amine Hydrochloride] showed an inhibition at 1 µM (human CRF receptor) greater than 80%.
For `CNCc1ccccc1-c1cccc2nc(Nc3c(C)cc(Cl)cc3OC)n(C)c12` [Example 64, N-(4-Chloro-2-methoxy-6-methylphenyl)-1-methyl-7-{2-[(methylamino)methyl]phenyl}-1H-benzimidazol-2-amine], the inhibition at 1 µM (human CRF receptor) was greater than 80%.
For `CCC(CC)c1ccc(Cl)c2nc(Nc3c(C)cc(Br)cc3OC)n(C)c12` [Example 77, N-(4-Bromo-2-methoxy-6-methylphenyl)-4-chloro-7-(1-ethylpropyl)-1-methyl-1H-benzimidazol-2-amine], the inhibition at 1 µM (human CRF receptor) was greater than 80%, the IC50 (human CRF receptor) was 10 to 50 nM and the melting point was 218 to 220 °C.
In the case of `CCCC(CC)c1nccc2nc(Nc3c(C)cc(Br)cc3OC)n(C)c12` (stereo not shown) [Example 9, N-(4-Bromo-2-methoxy-6-methylphenyl)-4-(1-ethylbutyl)-3-methyl-3H-imidazo[4,5-c]pyridin-2-amine], the inhibition at 1 µM (human CRF receptor) is reported as greater than 80%.
